{"source": "patent US12577228B2", "about": "“Dihydrocyclopenta-isoquinoline-sulfonamide derivatives compounds” (UCB Biopharma SRL, priority 2019, dated 2026)", "target": "T1, IgE-Tb / soluble IgE receptor FcεRIα with a Y131A mutation (Homo sapiens, UniProt P01854, N146Q/N252Q)", "T1 construct": "fused on or other part: Terbium chelate (LanthaScreen amine-reactive) on IgE-Fc; Alexa Fluor 488 hydrazide on the oxidised glycans of sFcεRIα; Both are labels and no part of the key", "T1 sequence (P01854 104-427 N146Q/N252Q)": "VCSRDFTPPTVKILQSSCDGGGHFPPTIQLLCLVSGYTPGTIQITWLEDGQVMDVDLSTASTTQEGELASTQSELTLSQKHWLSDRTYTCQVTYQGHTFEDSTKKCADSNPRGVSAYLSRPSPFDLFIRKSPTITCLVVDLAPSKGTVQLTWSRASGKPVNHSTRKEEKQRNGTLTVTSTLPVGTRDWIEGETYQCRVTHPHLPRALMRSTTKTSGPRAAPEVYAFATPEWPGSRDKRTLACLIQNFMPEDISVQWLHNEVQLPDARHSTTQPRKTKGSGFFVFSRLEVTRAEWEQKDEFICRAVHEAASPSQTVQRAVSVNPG", "T1 sequence (P12319 26-201 Y156A partner)": "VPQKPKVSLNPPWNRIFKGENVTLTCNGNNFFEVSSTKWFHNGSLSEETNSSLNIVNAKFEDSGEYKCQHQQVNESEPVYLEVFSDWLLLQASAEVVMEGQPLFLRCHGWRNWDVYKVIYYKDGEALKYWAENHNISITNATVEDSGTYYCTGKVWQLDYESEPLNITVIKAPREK", "test": "in vitro FRET assay: binding of IgE-Tb to receptor FcεRIα-Y131A-AF488 and its inhibition by compounds", "conditions": "5 nM IgE-Tb, 25 nM FcεRIα-Y131A-AF488, 2 hours at room temperature; read-out: FRET IC50 range", "note": "Structures can show the parent of a compound that is named as a salt.", "data": [{"compound": "CC(C)(F)CNS(=O)(=O)c1c2c(cc3cnc(C4CC4)cc13)C[C@@H](NC(=O)c1n[nH]c3cc(Br)ccc13)C2", "note": "[Example 141, 6-bromo-N-[(7R)-3-cyclopropyl-5-[(2-fluoro-2-methylpropyl)sulfamoyl]-7,8-dihydro-6H-cyclopenta[g]isoquinolin-7-yl]-1H-indazole-3-carboxamide]", "values": [{"measurement": "IC50", "value": "100 to 2000", "unit": "nM"}]}, {"compound": "CC(C)(F)CNS(=O)(=O)c1c2c(cc3cnc(C4CC4)cc13)CC(Nc1cccnc1)C2", "note": "(centres unmarked) [Example 86, 3-cyclopropyl-N-(2-fluoro-2-methylpropyl)-7-(pyridin-3-ylamino)-7,8-dihydro-6H-cyclopenta[g]isoquinoline-5-sulfonamide]", "values": [{"measurement": "IC50", "value": "10 to 50", "unit": "nM"}]}, {"compound": "CC(C)(F)CNS(=O)(=O)c1c2c(cc3cnc(C4CC4)cc13)CC(Nc1ccc(S(C)(=N)=O)nc1)C2", "note": "(centres unmarked) [Example 35, 3-cyclopropyl-N-(2-fluoro-2-methylpropyl)-7-[[6-(methylsulfonimidoyl)pyridin-3-yl]amino]-7,8-dihydro-6H-cyclopenta[g]isoquinoline-5-sulfonamide]", "values": [{"measurement": "IC50", "value": "10 to 50", "unit": "nM"}]}, {"compound": "CC(C)CNS(=O)(=O)c1c2c(cc3cnc(C4CC4)cc13)CNC2", "note": "[Example 60, 7-cyclopropyl-N-(2-methylpropyl)-2,3-dihydro-1H-pyrrolo[3,4-g]isoquinoline-9-sulfonamide]", "values": [{"measurement": "IC50", "value": "100 to 2000", "unit": "nM"}]}, {"compound": "O=C(O)c1ccc(NC2Cc3cc4cnc(C5CC5)cc4c(S(=O)(=O)NC4CC(F)(F)C4)c3C2)cn1", "note": "(centres unmarked) [Example 89, 5-[[3-cyclopropyl-5-[(3,3-difluorocyclobutyl)sulfamoyl]-7,8-dihydro-6H-cyclopenta[g]isoquinolin-7-yl]amino]pyridine-2-carboxylic acid]", "values": [{"measurement": "IC50", "value": "100 to 2000", "unit": "nM"}]}, {"compound": "CC(C)CNS(=O)(=O)c1c2c(cc3cnc(C4CC4)cc13)OCO2", "note": "[Example 68, 7-cyclopropyl-N-(2-methylpropyl)-[1,3]dioxolo[4,5-g]isoquinoline-9-sulfonamide]", "values": [{"measurement": "IC50", "value": "100 to 2000", "unit": "nM"}]}, {"compound": "Cc1nnc(-c2ccc(N[C@@H]3Cc4cc5cnc(C6CC6)cc5c(S(=O)(=O)NCC(C)(C)F)c4C3)cn2)o1", "note": "[Example 37, (7R)-3-cyclopropyl-N-(2-fluoro-2-methylpropyl)-7-[[6-(5-methyl-1,3,4-oxadiazol-2-yl)pyridin-3-yl]amino]-7,8-dihydro-6H-cyclopenta[g]isoquinoline-5-sulfonamide]", "values": [{"measurement": "IC50", "value": "1 to 10", "unit": "nM"}]}, {"compound": "Cc1nc(-c2ccc(N[C@@H]3Cc4cc5cnc(C6CC6)cc5c(S(=O)(=O)NCC(C)(C)F)c4C3)cn2)no1", "note": "[Example 31, (7R)-3-cyclopropyl-N-(2-fluoro-2-methylpropyl)-7-[[6-(5-methyl-1,2,4-oxadiazol-3-yl)pyridin-3-yl]amino]-7,8-dihydro-6H-cyclopenta[g]isoquinoline-5-sulfonamide]", "values": [{"measurement": "IC50", "value": "1 to 10", "unit": "nM"}]}, {"compound": "CC(C)(F)CNS(=O)(=O)c1c2c(cc3cnc(C4CC4)cc13)C[C@@H](Nc1ccc(C3(O)COC3)nc1)C2", "note": "[Example 38, (7R)-3-cyclopropyl-N-(2-fluoro-2-methylpropyl)-7-[[6-(3-hydroxyoxetan-3-yl)pyridin-3-yl]amino]-7,8-dihydro-6H-cyclopenta[g]isoquinoline-5-sulfonamide]", "values": [{"measurement": "IC50", "value": "10 to 50", "unit": "nM"}]}, {"compound": "CC(C)(F)CNS(=O)(=O)c1c2c(cc3cnc(C4CC4)cc13)CC(Nc1nc3ccccc3[nH]1)C2", "note": "(centres unmarked) [Example 20, 7-(1H-benzimidazol-2-ylamino)-3-cyclopropyl-N-(2-fluoro-2-methylpropyl)-7,8-dihydro-6H-cyclopenta[g]isoquinoline-5-sulfonamide]", "values": [{"measurement": "IC50", "value": "10 to 50", "unit": "nM"}]}, {"compound": "CC(C)(F)CNS(=O)(=O)c1c2c(cc3cnc(C4CC4)cc13)CC(Nc1cncc3[nH]cnc13)C2", "note": "(centres unmarked) [Example 62, 3-cyclopropyl-N-(2-fluoro-2-methylpropyl)-7-(3H-imidazo[4,5-c]pyridin-7-ylamino)-7,8-dihydro-6H-cyclopenta[g]isoquinoline-5-sulfonamide]", "values": [{"measurement": "IC50", "value": "10 to 50", "unit": "nM"}]}, {"compound": "CC(C)(F)CNS(=O)(=O)c1c2c(cc3cnc(C4CC4)cc13)C[C@@H](Nc1ccc(Cl)nc1)C2", "note": "[Example 32, (7R)-7-[(6-chloropyridin-3-yl)amino]-3-cyclopropyl-N-(2-fluoro-2-methylpropyl)-7,8-dihydro-6H-cyclopenta[g]isoquinoline-5-sulfonamide]", "values": [{"measurement": "IC50", "value": "10 to 50", "unit": "nM"}]}, {"compound": "CC(C)(F)CNS(=O)(=O)c1c2c(cc3cnc(C4CC4)cc13)CC(c1cccnc1)C2", "note": "(centres unmarked) [Example 110, 3-cyclopropyl-N-(2-fluoro-2-methylpropyl)-7-pyridin-3-yl-7,8-dihydro-6H-cyclopenta[g]isoquinoline-5-sulfonamide]", "values": [{"measurement": "IC50", "value": "100 to 2000", "unit": "nM"}]}, {"compound": "CC(C)(F)CNS(=O)(=O)c1c2c(cc3cnc(C4CC4)cc13)CC(NC(=O)c1cccnc1)C2", "note": "(centres unmarked) [Example 6, N-[3-cyclopropyl-5-[(2-fluoro-2-methylpropyl)sulfamoyl]-7,8-dihydro-6H-cyclopenta[g]isoquinolin-7-yl]pyridine-3-carboxamide]", "values": [{"measurement": "IC50", "value": "50 to 100", "unit": "nM"}]}, {"compound": "CCNC(=O)NC1Cc2cc3cnc(C4CC4)cc3c(S(=O)(=O)NCC(C)C)c2C1", "note": "(centres unmarked) [Example 44, 1-[3-cyclopropyl-5-(2-methylpropylsulfamoyl)-7,8-dihydro-6H-cyclopenta[g]isoquinolin-7-yl]-3-ethylurea]", "values": [{"measurement": "IC50", "value": "10 to 50", "unit": "nM"}]}, {"compound": "CC(C)(F)CNS(=O)(=O)c1c2c(cc3cnc(C4CC4)cc13)CC(NC1=CS(=O)(=O)CC1)C2", "note": "(centres unmarked) [Example 40, 3-cyclopropyl-7-[(1,1-dioxo-2,3-dihydrothiophen-4-yl)amino]-N-(2-fluoro-2-methylpropyl)-7,8-dihydro-6H-cyclopenta[g]isoquinoline-5-sulfonamide]", "values": [{"measurement": "IC50", "value": "100 to 2000", "unit": "nM"}]}, {"compound": "Cc1ccc2c(C(=O)N[C@@H]3Cc4cc5cnc(C6CC6)cc5c(S(=O)(=O)NCC(C)(C)F)c4C3)c[nH]c2c1", "note": "[Example 33, N-[(7R)-3-cyclopropyl-5-[(2-fluoro-2-methylpropyl)sulfamoyl]-7,8-dihydro-6H-cyclopenta[g]isoquinolin-7-yl]-6-methyl-1H-indole-3-carboxamide]", "values": [{"measurement": "IC50", "value": "10 to 50", "unit": "nM"}]}, {"compound": "CC(C)(F)CNS(=O)(=O)c1c2c(cc3cnc(C4CC4)cc13)C[C@@H](NC(=O)c1c[nH]c3ccc(F)cc13)C2", "note": "[Example 131, N-[(7R)-3-cyclopropyl-5-[(2-fluoro-2-methylpropyl)sulfamoyl]-7,8-dihydro-6H-cyclopenta[g]isoquinolin-7-yl]-5-fluoro-1H-indole-3-carboxamide]", "values": [{"measurement": "IC50", "value": "10 to 50", "unit": "nM"}]}, {"compound": "CC(C)(F)CNS(=O)(=O)c1c2c(cc3cnc(C4CC4)cc13)C[C@@H](Nc1cnc(C3(O)COC3)nc1)C2", "note": "[Example 30, (7R)-3-cyclopropyl-N-(2-fluoro-2-methylpropyl)-7-[[2-(3-hydroxyoxetan-3-yl)pyrimidin-5-yl]amino]-7,8-dihydro-6H-cyclopenta[g]isoquinoline-5-sulfonamide]", "values": [{"measurement": "IC50", "value": "10 to 50", "unit": "nM"}]}, {"compound": "Cn1ncc2c(NC3Cc4cc5cnc(C6CC6)cc5c(S(=O)(=O)NCC(C)(C)F)c4C3)cncc21", "note": "(centres unmarked) [Example 84, 3-cyclopropyl-N-(2-fluoro-2-methylpropyl)-7-[(1-methylpyrazolo[3,4-c]pyridin-4-yl)amino]-7,8-dihydro-6H-cyclopenta[g]isoquinoline-5-sulfonamide]", "values": [{"measurement": "IC50", "value": "10 to 50", "unit": "nM"}]}, {"compound": "COc1ccc2c(C(=O)N[C@@H]3Cc4cc5cnc(C6CC6)cc5c(S(=O)(=O)NCC(C)(C)F)c4C3)c[nH]c2c1", "note": "[Example 133, N-[(7R)-3-cyclopropyl-5-[(2-fluoro-2-methylpropyl)sulfamoyl]-7,8-dihydro-6H-cyclopenta[g]isoquinolin-7-yl]-6-methoxy-1H-indole-3-carboxamide]", "values": [{"measurement": "IC50", "value": "10 to 50", "unit": "nM"}]}, {"compound": "CC(C)CNS(=O)(=O)c1c2c(cc3cnc(C4CC4)cc13)CCC2", "note": "[Example 69, 3-cyclopropyl-N-isobutyl-7,8-dihydro-6H-cyclopenta[g]isoquinoline-5-sulfonamide]", "values": [{"measurement": "IC50", "value": "50 to 100", "unit": "nM"}]}, {"compound": "Cc1ncccc1-n1cnnc1NC1Cc2cc3cnc(C4CC4)cc3c(S(=O)(=O)NCC(C)(C)F)c2C1", "note": "(centres unmarked) [Example 78, 3-cyclopropyl-N-(2-fluoro-2-methylpropyl)-7-[[4-(2-methylpyridin-3-yl)-1,2,4-triazol-3-yl]amino]-7,8-dihydro-6H-cyclopenta[g]isoquinoline-5-sulfonamide]", "values": [{"measurement": "IC50", "value": "100 to 2000", "unit": "nM"}]}, {"compound": "CC(C)(F)CNS(=O)(=O)c1c2c(cc3cnc(C4CC4)cc13)CC1CC21", "note": "(centres unmarked) [Example 107, 13-cyclopropyl-N-(2-fluoro-2-methylpropyl)-12-azatetracyclo[8.4.0.03,8.04,6]tetradeca-1 (10),2,8,11,13-pentaene-2-sulfonamide]", "values": [{"measurement": "IC50", "value": "100 to 2000", "unit": "nM"}]}, {"compound": "CCNC(=O)NC1CCc2cc3cnc(C4CC4)cc3c(S(=O)(=O)NCC(C)C)c21", "note": "(centres unmarked) [Example 46, 1-[3-cyclopropyl-5-(2-methylpropylsulfamoyl)-7,8-dihydro-6H-cyclopenta[g]isoquinolin-6-yl]-3-ethylurea]", "values": [{"measurement": "IC50", "value": "100 to 2000", "unit": "nM"}]}, {"compound": "CC(C)(F)CNS(=O)(=O)c1c2c(cc3cnc(C4CC4)cc13)C[C@@H](Nc1cnc(Cl)cc1OCC1CC1)C2", "note": "[Example 119, (7R)-7-[[6-chloro-4-(cyclopropylmethoxy)pyridin-3-yl]amino]-3-cyclopropyl-N-(2-fluoro-2-methylpropyl)-7,8-dihydro-6H-cyclopenta[g]isoquinoline-5-sulfonamide]", "values": [{"measurement": "IC50", "value": "50 to 100", "unit": "nM"}]}, {"compound": "Cn1ccc(NC2Cc3cc4cnc(C5CC5)cc4c(S(=O)(=O)NCC(C)(C)F)c3C2)cc1=O", "note": "(centres unmarked) [Example 96, 3-cyclopropyl-N-(2-fluoro-2-methyl-propyl)-7-[(1-methyl-2-oxo-4-pyridyl)amino]-7,8-dihydro-6H-cyclopenta[g]isoquinoline-5-sulfonamide; formate salt]", "values": [{"measurement": "IC50", "value": "10 to 50", "unit": "nM"}]}, {"compound": "CC(C)(F)CNS(=O)(=O)c1c2c(cc3cnc(C4CC4)cc13)C[C@@H](Nc1ccc(F)nc1)C2", "note": "[Example 73, (7R)-3-cyclopropyl-N-(2-fluoro-2-methylpropyl)-7-[(6-fluoropyridin-3-yl)amino]-7,8-dihydro-6H-cyclopenta[g]isoquinoline-5-sulfonamide]", "values": [{"measurement": "IC50", "value": "10 to 50", "unit": "nM"}]}, {"compound": "CNS(=O)(=O)c1ccc(N[C@@H]2Cc3cc4cnc(C5CC5)cc4c(S(=O)(=O)NCC(C)(C)F)c3C2)cn1", "note": "[Example 93, (7R)-3-cyclopropyl-N-(2-fluoro-2-methylpropyl)-7-[[6-(methylsulfamoyl)pyridin-3-yl]amino]-7,8-dihydro-6H-cyclopenta[g]isoquinoline-5-sulfonamide]", "values": [{"measurement": "IC50", "value": "10 to 50", "unit": "nM"}]}]}
